Read-outs that look alike come from different tables or passages of the source. Values belong to the molecule of their own block, whether it stands above or below them.
What was measured:
[1] = system: neuronal SynCre+ Pank1,2 dKO mice; assay: Survival, weight gain and physiology of neuronal SynCre+ Pank1,2 dKO mice on Compound 1 chow; assay type: in vivo, mouse; details: 75 ppm chow
Description: All procedures were reviewed and approved by the St. Jude Children's Research Hospital Institutional Animal Care and Use Committee. […] The mice were maintained at room temperature, humidity 50±10% and a 14/10-hour light/dark cycle. […] Water was supplied ad libitum. Mice were randomized into the treatment arms at weaning.
Neuron-specific deletion of Pank1 and Pank2 was confirmed by PCR genotyping of brain and liver postmortem as described by Sharma et al.

[2] = in vivo; details: male, BALB/c, mouse, plasma; for bioavailability: oral
[3] = Pharmacokinetic evaluation in plasma of male BALB/c mice
[4] = system: Pcca−/−PCCA(A138T)tg/0 (PA) mice; assay: Short-term (3-day gavage) PZ-3022 treatment of PA mice: liver CoA pools and carnitines
[5] = system: C57BL/6J mice; assay: Liver total CoA and drug exposure in C57BL/6J mice (gavage or chow)
[6] = system: Pcca−/−PCCA(A138T)tg/0 (PA) mice; assay: TCA cycle intermediates in urine of PZ-3022-treated PA mice; assay type: in vivo, mouse; details: PZ-3022 therapy
Method: FIGS. 6A-6B show TCA cycle intermediates in plasma and urine of treated PA mice. Urinary TCA cycle metabolites eliminated over 24 h were quantified by mass spectrometry and normalized to mouse body weight. […] Three male (blue) and three female (red) mice were used for each determination.
(§1) Animal experiments. […] Water was supplied ad libitum.
Metabolites in urine and plasma. Water was added to a 24-h urine sample to a final volume of 1 ml for each mouse. To 100 μl of urine or 20 μl of plasma, warfarin standard was added at a final concentration of 0.2 μM and the sample was incubated at −80° C. for 1 hour. The sample was centrifuged at 6000×g for 10 minutes to remove precipitants and the supernatant was analyzed by LC/MS/MS. […] Solvent A was 0.1% formic acid in water, and Solvent B was acetonitrile+0.1% formic acid. […] The MRMs for metabolites in either the positive or negative mode were taken from. The MRMs for the warfarin internal standard were: negative mode, 307.1/161.0; and positive mode, 309.1/163.0. […] The relative amount of metabolite was normalized to the amount of warfarin. To improve glycine detection, this metabolite was measured after derivatization with benzoyl chloride using the technology and MRMs described.

[7] = system: wild-type mice; assay: Effect of PZ-3022 chow on liver CoA, amino acids and TCA metabolites in wild-type mice; assay type: in vivo, mouse
Method: FIGS. 20A-20E show liver CoASH (20A), liver C2-CoA (20B), liver C3-CoA (20C), liver C3:C2-CoA ratio (20D), and plasma and urine amino acid levels (20E). Number of mice in each group are shown in parenthesis. Amino acids were measured by mass spectrometry using warfarin as an internal standard except for glycine, which was measured as its benzoyl derivative. […] Two male (blue) and three female (red) mice were used for each determination.
Urinary TCA cycle metabolites eliminated over 24 h were quantified by mass spectrometry and normalized to mouse body weight. […] Male (blue) and female (red) mice were used for each determination. Number of mice in each group are shown in parenthesis.
as §1

[8] = system: C3A cells; assay: Total cellular CoA in C3A cells; assay type: cell-based, human; details: 10 μM, 24 h
Method: Cell culture. Human C3A (HepG2/C3A) cells (#CRL-1074) were purchased from ATCC® and maintained in DMEM supplemented with 2 mM glutamine, 10% fetal bovine serum (Atlanta Biologicals), 50 U/ml penicillin and […] streptomycin. HEK293T cells (ATCC, #CRL-3216) were used for expression of human PCCA protein standard and were maintained in DMEM plus supplements as described above. Each cell line was confirmed to be mycoplasma-free. […] DMSO alone was added to control cultures. Culture medium was aspirated off the dish, cells were quickly washed with ice-cold phosphate-buffered saline that was quickly aspirated off the dish, and cells were quickly washed again with ice-cold water that was aspirated off to remove residual saline. Ice-cold water (1 ml) was added to the culture dish, cells were scraped into the cold water and the cell suspension was transferred to a glass test tube containing 400 μl of […] KOH and 1.5 ml water for analysis of total CoA content.

[9] = system: Pcca−/−PCCA(A138T)tg/0 (PA) mice
[10] = 10 or 30 mg/kg plus 50 mg/kg pantothenate, 3 doses
[11] = 24 h urine normalized to body weight
[12] = 75 ppm chow to day 70, male and female

SMILES: O=C(Cc1ccc(C2CC2)c(F)c1)N1CCN(c2ccc(Cl)nn2)CC1 [Compound 1]
Growth rate, lifespan and movement dysfunction [1]: improvement of growth rate, lifespan, and movement dysfunction
Weight gain, greater than untreated dKO ([1]; at the time of evaluation): 10%

Cmax ([2]; iv, 2 mg/kg): 2810 ng/mL
bioavailability ([2]; 10 mg/kg): 46%
AUCinf ([3]; i.v. 2 mg/kg): 611.5 ng·h/mL
AUClast ([3]; i.v. 2 mg/kg): 608.6 ng·h/mL
CL ([3]; i.v. 2 mg/kg): 54.5 mL/min/kg
T1/2 ([3]; i.v. 2 mg/kg): 18 min
Vss ([3]; i.v. 2 mg/kg): 0.9 L/kg
AUCinf ([3]; p.o. 10 mg/kg): 1424.0 ng·h/mL
AUClast ([3]; p.o. 10 mg/kg): 1397.8 ng·h/mL
C0/Cmax (Cmax) ([3]; p.o. 10 mg/kg): 1886.5 ng/mL
Tmax ([3]; p.o. 10 mg/kg, 30% Captisol, male BALB/c mice, plasma): 18 min
SMILES: CC(C)c1ccc(CC(=O)N2CCN(c3ccc(C#N)nn3)CC2)cc1 [PZ-2891]

Plasma and liver PZ-3022 levels versus dose in chow ([5]; 7.5, 37.5 and 75 ppm in chow, 1 week): dose-dependent increase in drug
Circulating PZ-3022 at 24 h ([5]; gavage, plasma): not detected
AUC(0-t) ([2]; iv, 2 mg/kg): 2960 ng·h/mL
Cmax ([2]; iv, 2 mg/kg): 3290 ng/mL
bioavailability ([2]; 10 mg/kg): 100%
AUC(0-t) ([2]; po, 10 mg/kg): 16900 ng·h/mL
SMILES: N#Cc1ccc(N2CCN(C(=O)Cc3ccc(C4CC4)cc3)CC2)nn1 [PZ-3022, 6-(4-(2-(4-cyclopropylphenyl)acetyl)piperazin-1-yl)pyridazine-3-carbonitrile]
Liver total CoA ([4]; 10 and 30 mg/kg, 3 doses, fluorescent derivatization): significant, dose-dependent elevation
Liver C2-CoA [4, 10]: increased
Liver C3-CoA [4, 10]: decreased but was not eliminated
Liver CoASH ([4]; 10 or 30 mg/kg plus 50 mg/kg pantothenate, 3 doses at 24 h, 4 h after last dose): significantly elevated
Elevation of hepatic total CoA ([5]; 10 mg/kg oral gavage every 24 h for three days, 4 h after last dose): slightly more potent in elevating CoA than PZ-2891
Total liver CoA versus dose in chow ([5]; 7.5, 37.5 and 75 ppm in chow with 1000 ppm pantothenate, 1 week): dose response relationship
Hepatic CoA levels at 24 h ([5]; gavage): returned to the pre-dose level
Time at which elevation of liver CoA begins after administration ([5]; gavage, C57BL/6J male mice): 2 h
Time up to which elevation of liver CoA is maintained ([5]; gavage, C57BL/6J male mice): up to 8 h
Parent drug levels in plasma and liver ([5]; same oral dosage, 75 ppm chow for 4 weeks): higher levels of circulating (FIG. 16C) and liver (FIG. 16D) PZ-3022 compared to PZ-2891
Reduction in urinary methylmalonate ([6]; 24 h urine): 47%
Reduction of urinary malate ([6]; 24 h urine): 80%
Urine citrate level [6, 11]: significantly reduced
Urine malate level [6, 11]: significantly reduced
Urine methylmalonate level [6, 11]: significantly reduced
Urine α-ketoglutarate level [6, 11]: significantly reduced
Plasma and urine TCA cycle-related metabolite levels ([7]; treated vs untreated wild-type mice): no differences
Liver C3-CoA ([7]; wild-type mice on PZ-3022 chow): not altered
Liver CoASH ([7]; wild-type mice on PZ-3022 chow): increased as expected
Liver acetyl-CoA ([7]; wild-type mice on PZ-3022 chow): increased as expected
Plasma and urine amino acids ([7]; wild-type mice on PZ-3022 chow): not changed with the exception of histidine being lower in plasma and higher in urine
Elevation of total cellular CoA [8]: just as effective at raising total CoA levels in cultured cells as PZ-2891
Liver CoASH ([9]; 75 ppm PZ-3022 + 1000 ppm pantothenate chow from day 21 to day 70, males and females): restored liver CoASH levels to wild-type
Hepatic C3-CoA ([9]; 75 ppm chow to day 70): significant drop
Liver C2-CoA ([9]; 75 ppm chow to day 70): restored to wild-type levels
Liver C2-carnitine ([9]; 75 ppm chow to day 70): did not exhibit significant increases
Liver carnitine ([9]; 75 ppm chow to day 70): did not exhibit significant increases
Plasma C3-carnitine ([9]; 75 ppm chow to day 70, female mice): reduced
Liver C3-carnitine [9, 12]: significantly decreased
Plasma C2-carnitine [9, 12]: significantly increased
Plasma carnitine [9, 12]: increase
Plasma C3-carnitine ([9]; 75 ppm chow to day 70, male mice): the same in the treated and untreated male mice
Heart total CoA ([9]; PZ-3022 chow until 70 days of age): increased
Reduction in C3-CoA in liver ([9]; PZ-3022 therapy): 50%

Reference: patent US20240115566A1, “METHODS OF TREATING DISORDERS ASSOCIATED WITH CASTOR” (ST. JUDE CHILDREN'S RESEARCH HOSPITAL, INC., priority 2020, published 2024)
